Experimental data taken from ChEMBL document CHEMBL5303573, “Mapping human microbiome drug metabolism by gut bacteria and their genes” (Nature, 2019).

Key:
[1] = The drug is tested on Bacteroides caccae strain: ATCC43185 for biotransformation. The drug concentrations were measured before and after a 12-h incubation by liquid-chromatography-coupled mass spectrometry (LC–MS); settings: 2 µM
[2] = The drug is tested on Bacteroides vulgatus strain: ATCC8482 for biotransformation. The drug concentrations were measured before and after a 12-h incubation by liquid-chromatography-coupled mass spectrometry (LC–MS); settings: phocaeicola vulgatus, 2 µM
[3] = The drug is tested on Odoribacter splanchnicus strain: fecal isolate for biotransformation. The drug concentrations were measured before and after a 12-h incubation by liquid-chromatography-coupled mass spectrometry (LC–MS); settings: 2 µM
[4] = The drug is tested on Blautia luti strain: DSM14534 for biotransformation. The drug concentrations were measured before and after a 12-h incubation by liquid-chromatography-coupled mass spectrometry (LC–MS); type: ADME; design: dose 2 uM, timepoint 0 vs 12 hours; settings: 2 µM
[5] = The drug is tested on Clostridium sp. strain: fecal isolate for biotransformation. The drug concentrations were measured before and after a 12-h incubation by liquid-chromatography-coupled mass spectrometry (LC–MS); settings: 2 µM
[6] = The drug is tested on Clostridium ramosum strain: DSM1402 for biotransformation. The drug concentrations were measured before and after a 12-h incubation by liquid-chromatography-coupled mass spectrometry (LC–MS); settings: thomasclavelia ramosa, 2 µM
[7] = The drug is tested on Coprococcus comes strain: ATCC27758 for biotransformation. The drug concentrations were measured before and after a 12-h incubation by liquid-chromatography-coupled mass spectrometry (LC–MS); type: ADME; design: dose 2 uM, timepoint 0 vs 12 hours; settings: 2 µM
[8] = The drug is tested on Dorea formicigenerans strain: ATCC27755 for biotransformation. The drug concentrations were measured before and after a 12-h incubation by liquid-chromatography-coupled mass spectrometry (LC–MS); settings: 2 µM
[9] = The drug is tested on Edwardsiella tarda strain: ATCC23685 for biotransformation. The drug concentrations were measured before and after a 12-h incubation by liquid-chromatography-coupled mass spectrometry (LC–MS); settings: 2 µM
[10] = The drug is tested on Enterobacter cancerogenus strain: ATCC35316 for biotransformation. The drug concentrations were measured before and after a 12-h incubation by liquid-chromatography-coupled mass spectrometry (LC–MS); settings: 2 µM
[11] = bacteroides fragilis, 12 h, 2 µM
Description: The drug is tested on Bacteroides fragilis strain: NCTC 9343 for biotransformation. The drug concentrations were measured before and after a 12-h incubation by liquid-chromatography-coupled mass spectrometry (LC–MS)

[12] = bacteroides thetaiotaomicron, 12 h, 2 µM
Description: The drug is tested on Bacteroides thetaiotaomicron strain: VPI-5482 for biotransformation. The drug concentrations were measured before and after a 12-h incubation by liquid-chromatography-coupled mass spectrometry (LC–MS)

[13] = bacteroides thetaiotaomicron, 12 h, 2 µM; remark: listed apart in the source
Description: The drug is tested on Bacteroides thetaiotaomicron strain: 3731 for biotransformation. The drug concentrations were measured before and after a 12-h incubation by liquid-chromatography-coupled mass spectrometry (LC–MS)

[14] = bacteroides thetaiotaomicron, 12 h, 2 µM; remark: listed apart in the source
Description: The drug is tested on Bacteroides thetaiotaomicron strain: 7330 for biotransformation. The drug concentrations were measured before and after a 12-h incubation by liquid-chromatography-coupled mass spectrometry (LC–MS)

[15] = parabacteroides distasonis, 12 h, 2 µM
Description: The drug is tested on Parabacteroides distasonis strain: ATCC8503 for biotransformation. The drug concentrations were measured before and after a 12-h incubation by liquid-chromatography-coupled mass spectrometry (LC–MS)

[16] = akkermansia muciniphila, 12 h, 2 µM
Description: The drug is tested on Akkermansia muciniphila strain: ATCC BAA-835 for biotransformation. The drug concentrations were measured before and after a 12-h incubation by liquid-chromatography-coupled mass spectrometry (LC–MS)

[17] = The drug is tested on Eubacterium rectale strain: ATCC33656 for biotransformation. The drug concentrations were measured before and after a 12-h incubation by liquid-chromatography-coupled mass spectrometry (LC–MS); settings: agathobacter rectalis, 2 µM
[18] = The drug is tested on Ruminococcus lactaris strain: ATCC29176 for biotransformation. The drug concentrations were measured before and after a 12-h incubation by liquid-chromatography-coupled mass spectrometry (LC–MS); settings: 2 µM
[19] = The drug is tested on Bacteroides fragilis strain: ATCC43859 for biotransformation. The drug concentrations were measured before and after a 12-h incubation by liquid-chromatography-coupled mass spectrometry (LC–MS); settings: 2 µM
[20] = limosilactobacillus reuteri cf48-3a, 12 h, 2 µM
Description: The drug is tested on Lactobacillus reuteri CF48-3A strain: BEI HM-102 for biotransformation. The drug concentrations were measured before and after a 12-h incubation by liquid-chromatography-coupled mass spectrometry (LC–MS)

Row | SMILES | Bacterial Biotransformation [1] | Bacterial Biotransformation [2] | Bacterial Biotransformation [3] | Bacterial Biotransformation [4] | Bacterial Biotransformation [5] | Bacterial Biotransformation [6] | Bacterial Biotransformation [7] | Bacterial Biotransformation [8] | Bacterial Biotransformation [9] | Bacterial Biotransformation [10] | Bacterial Biotransformation [11] | Bacterial Biotransformation [12] | Bacterial Biotransformation [13] | Bacterial Biotransformation [14] | Bacterial Biotransformation [15] | Bacterial Biotransformation [16] | Bacterial Biotransformation [17] | Bacterial Biotransformation [18] | Bacterial Biotransformation [19] | Bacterial Biotransformation [20]
1 | CC12CC3CC(C)(C1)CC(N)(C3)C2 [MEMANTINE] | Compound NOT metabolized | Compound NOT metabolized | Compound NOT metabolized | Compound NOT metabolized | Compound NOT metabolized | Compound NOT metabolized | Compound NOT metabolized | Compound NOT metabolized | Compound NOT metabolized | Compound NOT metabolized | Compound NOT metabolized | Compound NOT metabolized | Compound NOT metabolized | Compound NOT metabolized | Compound NOT metabolized | Compound NOT metabolized | – | – | – | –
2 | O=C(NC(Cc1cc(=O)[nH]c2ccccc12)C(=O)O)c1ccc(Cl)cc1 (stereo unspecified) [REBAMIPIDE] | Compound NOT metabolized | – | Compound NOT metabolized | Compound NOT metabolized | Compound NOT metabolized | Compound NOT metabolized | Compound NOT metabolized | Compound NOT metabolized | Compound NOT metabolized | Compound NOT metabolized | Compound NOT metabolized | Compound NOT metabolized | Compound NOT metabolized | Compound metabolized | Compound NOT metabolized | Compound NOT metabolized | Compound NOT metabolized | Compound NOT metabolized | – | –
3 | Cc1ccc(/C(=C\CN2CCCC2)c2ccccn2)cc1 [TRIPROLIDINE] | Compound NOT metabolized | Compound NOT metabolized | Compound NOT metabolized | Compound NOT metabolized | Compound NOT metabolized | Compound NOT metabolized | – | Compound NOT metabolized | Compound NOT metabolized | – | Compound NOT metabolized | Compound NOT metabolized | Compound NOT metabolized | Compound NOT metabolized | Compound NOT metabolized | Compound NOT metabolized | – | Compound NOT metabolized | Compound NOT metabolized | Compound NOT metabolized
4 | O=C(O[C@H]1C[C@H]2CC[C@@H](C1)[N+]21CCCC1)C(O)(c1ccccc1)c1ccccc1.[Cl-] [TROSPIUM CHLORIDE] | Compound NOT metabolized | – | – | Compound NOT metabolized | – | Compound NOT metabolized | Compound NOT metabolized | Compound NOT metabolized | Compound NOT metabolized | Compound NOT metabolized | Compound NOT metabolized | Compound NOT metabolized | Compound NOT metabolized | Compound NOT metabolized | Compound NOT metabolized | Compound NOT metabolized | Compound NOT metabolized | Compound NOT metabolized | – | Compound NOT metabolized
